Test [1] addresses T1, Cytoplasmic tyrosine-protein kinase BMX (Homo sapiens, UniProt P51813).
T1 sequence (P51813 whole entry): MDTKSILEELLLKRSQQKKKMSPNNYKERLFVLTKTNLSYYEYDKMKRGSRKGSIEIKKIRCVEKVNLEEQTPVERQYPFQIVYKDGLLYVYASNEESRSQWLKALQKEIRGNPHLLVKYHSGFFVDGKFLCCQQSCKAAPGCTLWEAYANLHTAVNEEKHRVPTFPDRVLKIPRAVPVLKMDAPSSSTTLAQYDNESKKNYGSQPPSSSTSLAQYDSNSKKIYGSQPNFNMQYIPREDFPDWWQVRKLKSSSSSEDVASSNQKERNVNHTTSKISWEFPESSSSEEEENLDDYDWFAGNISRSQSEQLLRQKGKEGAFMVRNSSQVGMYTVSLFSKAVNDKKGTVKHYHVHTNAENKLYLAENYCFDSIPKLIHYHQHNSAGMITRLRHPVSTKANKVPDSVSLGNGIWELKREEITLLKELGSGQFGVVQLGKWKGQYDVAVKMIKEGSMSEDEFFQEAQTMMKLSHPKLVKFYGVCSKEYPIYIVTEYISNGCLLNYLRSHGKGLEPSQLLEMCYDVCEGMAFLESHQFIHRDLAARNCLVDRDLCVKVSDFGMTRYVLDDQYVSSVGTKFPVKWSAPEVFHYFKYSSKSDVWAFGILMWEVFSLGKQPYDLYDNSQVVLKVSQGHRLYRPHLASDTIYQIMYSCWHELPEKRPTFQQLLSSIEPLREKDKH

Test [2] addresses Epidermal growth factor receptor (Homo sapiens, UniProt P00533).
Another test has as its target Focal adhesion kinase 1 (Homo sapiens, UniProt Q05397).
In test [3] the target is T2, Tyrosine-protein kinase ITK/TSK (Homo sapiens, UniProt Q08881).
T2 sequence (Q08881 whole entry): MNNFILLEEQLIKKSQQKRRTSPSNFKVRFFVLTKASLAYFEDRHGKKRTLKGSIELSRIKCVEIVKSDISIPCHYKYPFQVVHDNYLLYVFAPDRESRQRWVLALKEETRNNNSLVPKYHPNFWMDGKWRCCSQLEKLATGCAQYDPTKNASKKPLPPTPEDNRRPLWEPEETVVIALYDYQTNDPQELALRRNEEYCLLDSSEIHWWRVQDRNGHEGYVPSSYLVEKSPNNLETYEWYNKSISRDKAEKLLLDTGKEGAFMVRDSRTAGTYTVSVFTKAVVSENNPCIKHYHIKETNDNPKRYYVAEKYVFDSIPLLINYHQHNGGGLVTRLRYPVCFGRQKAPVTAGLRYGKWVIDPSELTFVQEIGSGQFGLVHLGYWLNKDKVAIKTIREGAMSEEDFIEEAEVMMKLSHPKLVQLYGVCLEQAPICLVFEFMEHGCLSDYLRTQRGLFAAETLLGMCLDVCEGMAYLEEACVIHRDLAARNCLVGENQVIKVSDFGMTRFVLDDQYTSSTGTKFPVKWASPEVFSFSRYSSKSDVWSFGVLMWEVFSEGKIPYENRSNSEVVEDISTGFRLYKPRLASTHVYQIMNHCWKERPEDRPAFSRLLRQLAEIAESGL

Molecules are shown by their SMILES.

Chain of Epidermal growth factor receptor (P00533 whole entry): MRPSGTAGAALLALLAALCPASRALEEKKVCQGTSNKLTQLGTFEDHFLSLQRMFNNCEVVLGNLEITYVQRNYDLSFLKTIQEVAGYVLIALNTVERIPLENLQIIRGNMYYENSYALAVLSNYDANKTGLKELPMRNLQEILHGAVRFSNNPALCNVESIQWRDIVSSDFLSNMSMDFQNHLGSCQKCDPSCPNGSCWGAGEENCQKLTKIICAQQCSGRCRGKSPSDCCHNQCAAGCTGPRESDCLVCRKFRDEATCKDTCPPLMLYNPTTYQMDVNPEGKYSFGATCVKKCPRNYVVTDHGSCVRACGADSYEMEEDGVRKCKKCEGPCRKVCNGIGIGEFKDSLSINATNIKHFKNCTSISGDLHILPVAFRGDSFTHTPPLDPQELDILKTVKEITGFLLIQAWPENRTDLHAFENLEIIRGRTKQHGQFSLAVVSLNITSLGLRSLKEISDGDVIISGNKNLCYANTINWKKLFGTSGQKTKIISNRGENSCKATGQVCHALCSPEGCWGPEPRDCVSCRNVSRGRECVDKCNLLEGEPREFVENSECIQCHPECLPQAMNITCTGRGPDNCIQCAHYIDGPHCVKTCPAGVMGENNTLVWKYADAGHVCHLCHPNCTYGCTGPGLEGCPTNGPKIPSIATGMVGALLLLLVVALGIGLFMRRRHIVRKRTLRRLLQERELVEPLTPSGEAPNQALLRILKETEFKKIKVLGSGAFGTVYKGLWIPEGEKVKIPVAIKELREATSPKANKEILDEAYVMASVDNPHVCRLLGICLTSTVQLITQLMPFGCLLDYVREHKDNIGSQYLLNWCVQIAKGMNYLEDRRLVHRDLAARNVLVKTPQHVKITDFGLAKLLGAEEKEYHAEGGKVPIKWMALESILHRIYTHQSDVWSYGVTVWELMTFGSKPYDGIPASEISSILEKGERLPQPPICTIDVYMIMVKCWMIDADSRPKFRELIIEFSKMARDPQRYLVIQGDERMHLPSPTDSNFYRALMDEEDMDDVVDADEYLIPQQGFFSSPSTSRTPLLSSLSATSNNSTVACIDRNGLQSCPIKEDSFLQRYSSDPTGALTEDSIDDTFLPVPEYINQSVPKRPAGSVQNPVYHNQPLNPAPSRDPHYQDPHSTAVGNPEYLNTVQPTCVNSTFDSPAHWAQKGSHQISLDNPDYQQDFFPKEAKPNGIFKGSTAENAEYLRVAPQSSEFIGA
Chain of Focal adhesion kinase 1 (Q05397 whole entry): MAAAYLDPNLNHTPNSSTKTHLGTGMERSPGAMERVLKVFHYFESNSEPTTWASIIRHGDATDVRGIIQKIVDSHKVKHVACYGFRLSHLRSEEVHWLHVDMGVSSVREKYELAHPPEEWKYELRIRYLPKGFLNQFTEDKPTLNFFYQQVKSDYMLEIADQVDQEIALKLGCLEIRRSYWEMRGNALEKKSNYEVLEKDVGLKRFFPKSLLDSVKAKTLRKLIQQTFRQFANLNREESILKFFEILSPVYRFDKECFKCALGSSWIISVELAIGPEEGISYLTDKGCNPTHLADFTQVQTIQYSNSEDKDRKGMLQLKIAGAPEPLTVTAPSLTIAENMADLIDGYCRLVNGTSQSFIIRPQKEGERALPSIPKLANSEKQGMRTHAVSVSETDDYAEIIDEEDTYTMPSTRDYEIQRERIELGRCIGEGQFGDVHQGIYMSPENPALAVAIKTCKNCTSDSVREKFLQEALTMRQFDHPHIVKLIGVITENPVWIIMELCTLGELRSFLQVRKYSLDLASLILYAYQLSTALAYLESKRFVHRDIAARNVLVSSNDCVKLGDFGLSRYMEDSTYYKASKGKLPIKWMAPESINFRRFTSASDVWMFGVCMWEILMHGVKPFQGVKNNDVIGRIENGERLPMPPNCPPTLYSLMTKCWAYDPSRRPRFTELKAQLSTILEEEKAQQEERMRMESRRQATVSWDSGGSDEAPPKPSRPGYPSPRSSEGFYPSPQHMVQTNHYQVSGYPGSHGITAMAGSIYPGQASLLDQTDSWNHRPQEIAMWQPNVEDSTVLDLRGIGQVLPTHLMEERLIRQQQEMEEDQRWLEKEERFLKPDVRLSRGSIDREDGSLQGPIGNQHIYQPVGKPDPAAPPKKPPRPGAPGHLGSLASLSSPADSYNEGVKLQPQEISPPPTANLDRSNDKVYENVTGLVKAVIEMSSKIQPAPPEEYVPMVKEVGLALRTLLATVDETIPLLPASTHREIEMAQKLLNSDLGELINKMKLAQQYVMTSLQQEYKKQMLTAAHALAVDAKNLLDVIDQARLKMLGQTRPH

On to `C=CC(=O)Nc1ccccc1Nc1nc(Nc2ccc(OCCCOC3(CC)OCC(C)(C)CO3)cc2)ncc1F`, for which the IC50 (in test [1]; in test [2]; against Focal adhesion kinase 1; in test [3]) was over 100 nM in each case.

For the compound `C=CC(=O)N1CCC[C@@H](Nc2nc(Nc3ccc(OCCCOC4(CC)OCC(C)(C)CO4)cc3)ncc2F)C1`, the IC50 in test [1] is under 100 nM; in test [2], over 100 nM; against Focal adhesion kinase 1, over 100 nM; in test [3], over 100 nM.

(Values after ChEMBL document CHEMBL5729309, “Substituted pyrimidines, pharmaceutical compositions and therapeutic methods thereof” (2022).)
